Data published in patent US12649733B2, “3,6-diamino-pyridazin-3-yl derivatives, pharmaceutical compositions containing them and their uses as pro-apoptotic agents” (LES LABORATOIRES SERVIER, priority 2019, dated 2026).

How the values were obtained:
BCLXL = BCLXL (Homo sapiens, UniProt Q07817, V10N/V9A); test: Fluorescence polarisation assay (PUMA-based probe displacement); assay type: binding; note: 20 nM protein, 10 nM fluorescent probe
Method: Fluorescence polarization measures the rotation of a fluorescing species in solution, the larger the molecule the more polarized the fluorescence emission.
[[…]] (GST UniProtKB® primary accession number P08515 and BCLXL UniProtKB® primary accession number Q07817-1),
resulting in an increase in anisotropy. If a compound is added which competitively binds to the same site as the probe, thereby releasing it, anisotropy decreases due to the increased amount of free probe.
An 11-point serial dilution of each compound was prepared in DMSO, the final buffer conditions were 10 mM 4-(2-hydroxyethyl)-1-piperazineethanesulfonic acid [HEPES], 150 mM NaCl, 0.05% Tween 20, pH 7.4 and 5% DMSO. The final protein concentration in the assay was 20 nM with the fluorescent probe present at 10 nM. The experiments were incubated for 2 hours at 23° C. before fluorescence polarization was measured on a Biotek SynergyNeo plate reader (Excitation 485 nm, emission 525 nm, parallel and perpendicular reads). […] The KI values were determined from the IC50 values according to Cer et al, Nucleic Acids Res, 2009, Jul. 1: 37(WebServer issue): W441-W445.

H146 cells = test: H146 cell viability, MTT assay; assay type: cell-based; details: Homo sapiens, NCI-H146, 48 h, 48 h exposure
Method: (§1) MTT colorimetric assay is based on the mitochondrial reduction of tetrazolium salt by living cells. The viable cell number is proportional to the production of formazan salts, which can be read spectrophotometrically at 540 nm.
(§2) MOLT-4 and H146 cells were purchased from ATCC and cultivated in RPMI 1640 supplemented with 10% heat inactivated fetal bovine serum, penicillin (100 IU/ml), streptomycin (100 μg/ml) and L-glutamine (2 mM). Cells were cultured at 37° C. in a humidified atmosphere containing 5% CO2. Cells were seeded in 96 microwell plates (150 μL per well) and exposed to the compounds for 48 h (3.16 fold serially diluted; 9 concentrations each, triplicates). At the end of incubation time, 15 μL of MTT solution (5 mg/ml) were added per well and the cells were incubated for another 4 h. Then, 100 μL of 10% Sodium Dodecyl Sulfate (SDS)/HCl 10 mM were added per well and the plate was incubated overnight, before measurement of optical density at 540 nm. IC50s were calculated using standard four-parametric curve fitting.

MOLT-4 cells = test: MOLT-4 cell viability, MTT assay; assay type: cell-based; details: Homo sapiens, MOLT-4, 48 h, 48 h exposure
Method: as §1, §2

Sequence of BCLXL (Q07817 with tags, fused parts or gaps V9A/V10N): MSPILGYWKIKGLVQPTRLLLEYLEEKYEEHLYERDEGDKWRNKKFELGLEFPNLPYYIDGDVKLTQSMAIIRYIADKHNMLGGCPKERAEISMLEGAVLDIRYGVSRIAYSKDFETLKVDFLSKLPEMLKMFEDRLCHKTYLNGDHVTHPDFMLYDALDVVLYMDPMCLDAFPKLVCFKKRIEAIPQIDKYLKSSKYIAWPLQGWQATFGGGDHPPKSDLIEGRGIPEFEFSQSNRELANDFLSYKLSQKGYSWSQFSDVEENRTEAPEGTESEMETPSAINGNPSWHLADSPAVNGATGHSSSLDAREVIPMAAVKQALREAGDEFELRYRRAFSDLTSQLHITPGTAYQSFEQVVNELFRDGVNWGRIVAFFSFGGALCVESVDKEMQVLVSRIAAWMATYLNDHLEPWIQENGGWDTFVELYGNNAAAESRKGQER

| Ki (BCLXL) | IC50 (H146 cells) | IC50 (MOLT-4 cells) | Structure (SMILES) |
| --- | --- | --- | --- |
| 40 nM | ≥ 12700 nM | 13000 nM | O=C(O)c1csc(Nc2nnc(Nc3nc4ccccc4s3)c3c2CCC3)n1 [Example 23, 2-[[1-(1,3-Benzothiazol-2-ylamino)-6,7-dihydro-5H-cyclopenta[d]pyridazin-4-yl]amino]thiazole-4-carboxylic acid] |
| 130 nM | > 15000 nM | > 15000 nM | COCc1c(Nc2nc3ccccc3s2)nnc(Nc2nc(C(=O)O)cs2)c1C [Example 28, 2-({6-[(1,3-Benzothiazol-2-yl)amino]-5-(methoxymethyl)-4-methylpyridazin-3-yl}amino)-1,3-thiazole-4-carboxylic acid] |
| 310 nM | > 15000 nM | > 13000 nM | Cc1c(Nc2nc(C(=O)O)cs2)nnc(Nc2nc3ccccc3s2)c1CO [Example 27, 2-({6-[(1,3-Benzothiazol-2-yl)amino]-5-(hydroxymethyl)-4-methylpyridazin-3-yl}amino)-1,3-thiazole-4-carboxylic acid] |
| 31 nM | 22.4 nM | 3590 nM | COCCCc1sc(N(CCCOC)c2cc(C)c(Nc3nc4ccccc4s3)nn2)nc1C(=O)O [Example 64, 2-({6-[(1,3-Benzothiazol-2-yl)amino]-5-methylpyridazin-3-yl}(3-methoxypropyl)amino)-5-(3-methoxypropyl)-1,3-thiazole-4-carboxylic acid] |
| 110 nM | ≥ 14900 nM | 6590 nM | Cc1cc(N(C)c2nc(C(=O)O)c(N3CC[C@H](Oc4ccccc4)C3)s2)nnc1Nc1nc2ccccc2s1 [Example 77, 2-({6-[(1,3-Benzothiazol-2-yl)amino]-5-methylpyridazin-3-yl}(methyl)amino)-5-[(3S)-3-phenoxypyrrolidin-1-yl]-1,3-thiazole-4-carboxylic acid] |
| 220 nM | > 15000 nM | > 15000 nM | Cc1cc(N(C)c2nc(C(=O)O)c(C3CCCCC3)s2)nnc1Nc1nc2ccccc2s1 [Example 102, 2-({6-[(1,3-Benzothiazol-2-yl)amino]-5-methylpyridazin-3-yl}(methyl)amino)-5-cyclohexyl-1,3-thiazole-4-carboxylic acid] |
| 380 nM | > 15000 nM | > 15000 nM | Cc1cc(N(C)c2nc(C(=O)O)c(C3CCCC3)s2)nnc1Nc1nc2ccccc2s1 [Example 105, 2-({6-[(1,3-Benzothiazol-2-yl)amino]-5-methylpyridazin-3-yl}(methyl)amino)-5-cyclopentyl-1,3-thiazole-4-carboxylic acid] |
| 27 nM | > 15000 nM | > 15000 nM | C=Cc1sc(N(C)c2cc(C)c(Nc3nc4ccccc4s3)nn2)nc1C(=O)O [Example 106, 2-({6-[(1,3-benzothiazol-2-yl)amino]-5-methylpyridazin-3-yl}(methyl)amino)-5-ethenyl-1,3-thiazole-4-carboxylic acid] |
| 3.8 nM | 292 nM | 2230 nM | Cc1c(Nc2nc(C(=O)O)c(CCCOc3ccccc3F)s2)nnc(Nc2nc3ccccc3s2)c1C [Example 13, 2-({6-[(1,3-Benzothiazol-2-yl)amino]-4,5-dimethylpyridazin-3-yl}amino)-5-[3-(2-fluorophenoxy)propyl]-1,3-thiazole-4-carboxylic acid] |
| < 1 nM | 593 nM | 192 nM | Cc1cc(N(C)c2nc(C(=O)O)c(CCCOC3CCCCC3)s2)nnc1Nc1nc2ccccc2s1 [Example 61, 2-({6-[(1,3-Benzothiazol-2-yl)amino]-5-methylpyridazin-3-yl}(methyl)amino)-5-[3-(cyclohexyloxy)propyl]-1,3-thiazole-4-carboxylic acid] |
| 4.2 nM | 686 nM | 446 nM | Cc1cc(N(C)c2nc(C(=O)O)c(N3CC(Oc4ccccc4)C3)s2)nnc1Nc1nc2ccccc2s1 [Example 69, 2-({6-[(1,3-Benzothiazol-2-yl)amino]-5-methylpyridazin-3-yl}(methyl)amino)-5-(3-phenoxyazetidin-1-yl)-1,3-thiazole-4-carboxylic acid] |
| 160 nM | ≥ 12400 nM | 14600 nM | Cc1cc(N(C)c2nc(C(=O)O)c(C3CCN(Cc4ccccc4)CC3)s2)nnc1Nc1nc2ccccc2s1 [Example 86, 2-({6-[(1,3-Benzothiazol-2-yl)amino]-5-methylpyridazin-3-yl}(methyl)amino)-5-(1-benzylpiperidin-4-yl)-1,3-thiazole-4-carboxylic acid] |
| > 10000 nM | > 15000 nM | > 15000 nM | Cc1cc(N(C)c2ccc(C(=O)O)s2)nnc1Nc1nc2ccccc2s1 [Example 56, 5-({6-[(1,3-Benzothiazol-2-yl)amino]-5-methylpyridazin-3-yl}(methyl)amino)thiophene-2-carboxylic acid] |
| 49 nM | > 15000 nM | > 15000 nM | Cc1c(Nc2nc(C(=O)O)cs2)nnc(Nc2nc3cc(F)ccc3s2)c1C [Example 58, 2-[[6-[(5-Fluoro-1,3-benzothiazol-2-yl)amino]-4,5-dimethyl-pyridazin-3-yl]amino]thiazole-4-carboxylic acid] |
| 59 nM | 2330 nM | 3700 nM | COCCCC1(Cn2ncc(-c3sc(Nc4nnc(Nc5nc6ccccc6s5)c(C)c4C)nc3C(=O)O)c2C)CCCCCCC1 [Example 35, 2-({6-[(1,3-Benzothiazol-2-yl)amino]-4,5-dimethylpyridazin-3-yl}amino)-5-(1-{[1-(3-methoxypropyl)cyclooctyl]methyl}-5-methyl-1H-pyrazol-4-yl)-1,3-thiazole-4-carboxylic acid] |
| 2.6 nM | 4190 nM | 2340 nM | CN(c1cc(C2CC2)c(Nc2nc3ccccc3s2)nn1)c1nc(C(=O)O)cs1 [Example 31, 2-({6-[(1,3-Benzothiazol-2-yl)amino]-5-cyclopropylpyridazin-3-yl}(methyl)amino)-1,3-thiazole-4-carboxylic acid] |
| 250000 nM | > 15000 nM | > 15000 nM | CN(c1ccc(Nc2nc3ccccc3s2)nn1)c1cccc(C(=O)O)n1 [Example 38, 6-({6-[(1,3-Benzothiazol-2-yl)amino]pyridazin-3-yl}(methyl)amino)pyridine-2-carboxylic acid] |
| 1.9 nM | 1160 nM | 527 nM | COCCCN(c1cc(C)c(Nc2nc3ccccc3s2)nn1)c1nc(C(=O)O)c(CCCOC2CCCCC2)s1 [Example 66, 2-({6-[(1,3-Benzothiazol-2-yl)amino]-5-methylpyridazin-3-yl}(3-methoxypropyl)amino)-5-[3-(cyclohexyloxy)propyl]-1,3-thiazole-4-carboxylic acid] |
| 64 nM | 4370 nM | 6250 nM | Cc1c(Nc2nc(C(=O)O)c(-c3cnn(CC45CC6CC(CC(C6)C4)C5)c3C)s2)nnc(Nc2nc3ccccc3s2)c1C [Example 33, 5-{1-[(Adamantan-1-yl)methyl]-5-methyl-1H-pyrazol-4-yl}-2-({6-[(1,3-benzothiazol-2-yl)amino]-4,5-dimethylpyridazin-3-yl}amino)-1,3-thiazole-4-carboxylic acid] |
| 90 nM | 13000 nM | 8360 nM | COCCCN(c1cc(C)c(Nc2nc3ccccc3s2)nn1)c1nc(C(=O)O)c(-c2cnn(CC34CC5CC(CC(C5)C3)C4)c2C)s1 [Example 52, 5-{1-[(Adamantan-1-yl)methyl]-5-methyl-1H-pyrazol-4-yl}-2-({6-[(1,3-benzothiazol-2-yl)amino]-5-methylpyridazin-3-yl}(3-methoxypropyl)amino)-1,3-thiazole-4-carboxylic acid] |
| 260 nM | ≥ 7420 nM | 13300 nM | Cc1c(-c2sc(Nc3ccc(Nc4nc5ccccc5s4)nn3)nc2C(=O)O)cnn1CC12CC3CC(CC(C3)C1)C2 [Example 32, 5-{1-[(Adamantan-1-yl)methyl]-5-methyl-1H-pyrazol-4-yl}-2-({6-[(1,3-benzothiazol-2-yl)amino]pyridazin-3-yl}amino)-1,3-thiazole-4-carboxylic acid] |

| Structure (SMILES) | Ki (BCLXL) | IC50 (H146 cells) | IC50 (MOLT-4 cells) |
| --- | --- | --- | --- |
| Cc1cc(N(C)c2nc(C(=O)O)c(C3CCN(C(=O)OC(C)(C)C)CC3)s2)nnc1Nc1nc2ccccc2s1 [Example 84, 2-({6-[(1,3-Benzothiazol-2-yl)amino]-5-methylpyridazin-3-yl}(methyl)amino)-5-{1-[(tert-butoxy)carbonyl]piperidin-4-yl}-1,3-thiazole-4-carboxylic acid] | 49 nM | > 15000 nM | 7570 nM |
